From ChEMBL document CHEMBL1201862, “PubChem BioAssay data set” (2004)
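These data come from cells grown in 96-well plates and exposed to compound for 48 hours at five concentrations. GI50 marks 50% less growth.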 The source made the active and inactive calls. Rule as the data show it: active = GI50 up to about 1.1 µM and inactive = higher.

Key:
Test in all cases: NCI anticancer screen, dose series, 48 h
MCF7 = system: MCF7
DMS-273 = system: DMS-273
HT-29 = system: HT-29
OVCAR-3 = system: OVCAR-3
Malme-3M = system: Malme-3M
A498 = system: A498
786-0 = system: 786-0
SNB-75 = system: SNB-75
HOP-92 = system: HOP-92
Hs-578T = system: Hs-578T
SNB-19 = system: SNB-19
OVCAR-8 = system: OVCAR-8
KM12 = system: KM12
SF-295 = system: SF-295
RXF 393 = system: RXF 393
LXFL 529 = system: LXFL 529
SK-MEL-5 = system: SK-MEL-5
NCI-H226 = system: NCI-H226
TK-10 = system: TK-10
HL-60 = system: HL-60
IGROV-1 = system: IGROV-1
HCC 2998 = system: HCC 2998
UO-31 = system: UO-31
SF-268 = system: SF-268
NCI-H522 = system: NCI-H522
XF498 = system: XF498
MDA-N = system: MDA-N
SK-MEL-2 = system: SK-MEL-2
SW-620 = system: SW-620
SR = system: SR
U-251 = system: U-251
M14 = system: M14
LOX IMVI = system: LOX IMVI
NCI-H23 = system: NCI-H23
DU-145 = system: DU-145
UACC-257 = system: UACC-257
NCI-H460 = system: NCI-H460
COLO 205 = system: COLO 205
SN12C = system: SN12C
RPMI-8226 = system: RPMI-8226
K562 = system: K562
PC-3 = system: PC-3
SNB-78 = system: SNB-78
HOP-18 = system: HOP-18
A549 = system: A549
NCI/ADR-RES = system: NCI/ADR-RES
KM-20L2 = system: KM-20L2
CCRF-CEM = system: CCRF-CEM
CAKI-1 = system: CAKI-1
DLD-1 = system: DLD-1
BT-549 = system: BT-549
T47D = system: T47D
OVCAR-4 = system: OVCAR-4
SF-539 = system: SF-539
SK-OV-3 = system: SK-OV-3
HCT-116 = system: HCT-116
EKVX = system: EKVX
SK-MEL-28 = system: SK-MEL-28
HOP-62 = system: HOP-62
M19-MEL = system: M19-MEL
MOLT-4 = system: MOLT-4
MDA-MB-231 = system: MDA-MB-231
UACC-62 = system: UACC-62
ACHN = system: ACHN
MDA-MB-435 = system: MDA-MB-435
HCT-15 = system: HCT-15
DMS-114 = system: DMS-114
OVCAR-5 = system: OVCAR-5

## CN(C)CC1(Cc2ccccc2)CCC(Cc2ccccc2)C1=O (stereo not drawn)
MCF7
  GI50: 5.15 µM (inactive)
DMS-273
  GI50: 10.5 µM (inactive)
HT-29
  GI50: 13 µM (inactive)
OVCAR-3
  GI50: 6.95 µM (inactive)
Malme-3M
  GI50: 12.5 µM (inactive)
A498
  GI50: 15.5 µM (inactive)
786-0
  GI50: 2.07 µM (inactive)
SNB-75
  GI50: 14.4 µM (inactive)
HOP-92
  GI50: 17.4 µM (inactive)
Hs-578T
  GI50: 15.6 µM (inactive)
SNB-19
  GI50: 16 µM (inactive)
OVCAR-8
  GI50: 5.73 µM (inactive)
KM12
  GI50: 8.36 µM (inactive)
SF-295
  GI50: 16.6 µM (inactive)
RXF 393
  GI50: 13.9 µM (inactive)
LXFL 529
  GI50: 2.71 µM (inactive)
SK-MEL-5
  GI50: 13.7 µM (inactive)
NCI-H226
  GI50: 20.1 µM (inactive)
TK-10
  GI50: 13.4 µM (inactive)
HL-60
  GI50: 3.29 µM (inactive)
IGROV-1
  GI50: 9.04 µM (inactive)
HCC 2998
  GI50: 7.05 µM (inactive)
UO-31
  GI50: 16.9 µM (inactive)
SF-268
  GI50: 14.8 µM (inactive)
NCI-H522
  GI50: 2.84 µM (inactive)
XF498
  GI50: 21.9 µM (inactive)
MDA-N
  GI50: 11 µM (inactive)
SK-MEL-2
  GI50: 12.2 µM (inactive)
SW-620
  GI50: 3.67 µM (inactive)
SR
  GI50: 4.47 µM (inactive)
U-251
  GI50: 17.5 µM (inactive)
M14
  GI50: 10.1 µM (inactive)
LOX IMVI
  GI50: 6.9 µM (inactive)
NCI-H23
  GI50: 18.1 µM (inactive)
DU-145
  GI50: 14.8 µM (inactive)
UACC-257
  GI50: 14.9 µM (inactive)
NCI-H460
  GI50: 12.2 µM (inactive)
COLO 205
  GI50: 6.85 µM (inactive)
SN12C
  GI50: 9.77 µM (inactive)
RPMI-8226
  GI50: 1.89 µM (inactive)
K562
  GI50: 2.79 µM (inactive)
PC-3
  GI50: 10.1 µM (inactive)
SNB-78
  GI50: 15.8 µM (inactive)
HOP-18
  GI50: 8.47 µM (inactive)
A549
  GI50: 17.3 µM (inactive)
NCI/ADR-RES
  GI50: 9.68 µM (inactive)
KM-20L2
  GI50: 17.1 µM (inactive)
CCRF-CEM
  GI50: 2.79 µM (inactive)
CAKI-1
  GI50: 13.3 µM (inactive)
DLD-1
  GI50: 2.86 µM (inactive)
BT-549
  GI50: 8.95 µM (inactive)
T47D
  GI50: 8.61 µM (inactive)
OVCAR-4
  GI50: 16.3 µM (inactive)
SF-539
  GI50: 18.1 µM (inactive)
SK-OV-3
  GI50: 21.8 µM (inactive)
HCT-116
  GI50: 11.1 µM (inactive)
EKVX
  GI50: 17.1 µM (inactive)
SK-MEL-28
  GI50: 12.3 µM (inactive)
HOP-62
  GI50: 18 µM (inactive)
M19-MEL
  GI50: 16.5 µM (inactive)
MOLT-4
  GI50: 2.88 µM (inactive)
MDA-MB-231
  GI50: 11.2 µM (inactive)
UACC-62
  GI50: 16.5 µM (inactive)
ACHN
  GI50: 16.1 µM (inactive)
MDA-MB-435
  GI50: 10.2 µM (inactive)
HCT-15
  GI50: 5.21 µM
DMS-114
  GI50: 15.8 µM (inactive)
OVCAR-5
  GI50: 18 µM (inactive)
